# Reference: patent US8846761B2, “Method for treating pancreatitis” (Michigan Life Therapeutics, LLC, priority 2010, dated 2014)
# Where two headings read alike, the source gives them in different places.
# Assays:
# [1] = system: patients having TG levels >500 mg/dL; test: Randomized, double-blind, placebo-controlled study of gemcabene, subset of patients entering with TG >500 mg/dL; assay type: in vivo, human; conditions: for ApoA-I average % increase / ApoB average % decrease / ApoC-III average % decrease / HDL-C average % increase / VLDL-C average % decrease / hs-CRP average % decrease / Triglycerides average % decrease: patients TG >500 mg/dL; for Triglycerides average % decrease: once daily for 12 weeks, serum, change from baseline
# Description: A randomized, double-blind, placebo-controlled study was conducted to evaluate the efficacy and tolerability of gemcabene in patients with HDL cholesterol levels <35 mg/dL. Patients were stratified based on whether mean serum triglyceride (TG) levels were <200 mg/dL or ≧200 mg/dL. Within each TG stratum, patients were randomized to receive either 150, 300, 600 or 900 mg of gemcabene, or placebo, once daily for 12 weeks.
# Patients were evaluated for percent change from baseline levels of serum HDL cholesterol, serum LDL cholesterol, TG, apolipoproteins A-I, A-II, B, C-III, and E, hs CRP and non-HDL cholesterol levels. Blood samples were measured at screening, randomization and at −8, −4, −2 weeks, baseline, and 2, 4, and 12 weeks after the start of study medication. In addition, HDL-C, LDL-C and TG levels were measured at 2 and 4 weeks before starting study medication. Bays H. E. et al. Am J Cardiol (2003) vol.
# When the data were examined for the subset of patients entering the study having TG levels greater than 500 mg/dL, an unexpectedly large decrease in TG levels for those patients treated with gemcabene was seen as compared with the broader group of patients having triglyceride levels ≧200 mg/dL. Twenty-seven patients having TG levels >500 mg/dL were evaluated in the study.
# FIGS. 2a-e, 3a-e, 4a-e, 5a-e, 6a-e, 7a-e and 8a-e are graphs illustrating the serum levels of TG, HDL-C, ApoA-I, ApoC-III, VLDL-C, hs CRP, and ApoB for individual patients at baseline and at 12 weeks post treatment with doses of 150, 300, 600, and 900 mg/day of gemcabene, or placebo.
# Tables 1-7 provide the data expressed as average percent and mean percent decrease or increase, as appropriate, for each of these parameters at each of the doses tested.
# [2] = system: patient with triglyceride level of 1030 mg/dl; test: Example 5: patient with triglyceride level of 1030 mg/dl treated with gemcabene; assay type: in vivo, human; conditions: 300 mg once per day plus low fat diet, 12-week follow-up, initial 1030 mg/dl
# Description: A patient, as part of a routine annual examination, has blood tests which reveal that the patient has an LDL-C level of 200 mg/dl and a triglyceride level of 1030 mg/dl. This high triglyceride level places them at high risk for developing pancreatitis. According to the […] guidelines, the patient's treatment is initially targeted to address the high triglyceride level. The patient is administered gemcabene at a dose of 300 mg once per day and is placed on a low fat diet.
# [3] = system: patients having triglyceride levels ≧200 mg/dL; conditions: data reported in Bays et al., cited from earlier work
# [4] = molecular target: T1, CYP3A4 (Homo sapiens, UniProt P08684); conditions: cited from earlier work
# T1 sequence (P08684 whole entry): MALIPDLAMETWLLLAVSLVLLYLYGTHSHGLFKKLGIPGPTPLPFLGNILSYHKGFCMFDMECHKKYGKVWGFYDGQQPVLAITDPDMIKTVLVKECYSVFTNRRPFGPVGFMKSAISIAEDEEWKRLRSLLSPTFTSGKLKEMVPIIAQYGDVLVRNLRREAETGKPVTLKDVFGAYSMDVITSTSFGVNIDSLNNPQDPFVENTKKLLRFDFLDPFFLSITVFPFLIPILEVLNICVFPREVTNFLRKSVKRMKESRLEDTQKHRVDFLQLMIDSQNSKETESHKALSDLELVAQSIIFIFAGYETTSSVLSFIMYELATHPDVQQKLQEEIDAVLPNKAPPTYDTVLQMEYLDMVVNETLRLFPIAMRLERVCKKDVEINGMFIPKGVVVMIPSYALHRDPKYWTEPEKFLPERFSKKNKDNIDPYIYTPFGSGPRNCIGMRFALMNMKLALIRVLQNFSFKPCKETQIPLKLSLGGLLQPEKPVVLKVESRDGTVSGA
# [5] = molecular target: T1, CYP3A4; conditions: simvastatin (a CYP3A4 substrate); cited from earlier work
smiles,measurement,setting,value
"CC(C)(CCCCOCCCCC(C)(C)C(=O)O)C(=O)O [Gemcabene, 6,6′-oxybis-(2,2′-dimethylhexanoic acid)]",ApoA-I average % increase,"[1]; 150 mg/day, 12 weeks",9.27%
same,ApoB average % decrease,"[1]; 150 mg/day, 12 weeks",−16.15%
same,ApoC-III average % decrease,"[1]; 150 mg/day, 12 weeks",36.95%
same,HDL-C average % increase,"[1]; 150 mg/day, 12 weeks",32.59%
same,VLDL-C average % decrease,"[1]; 150 mg/day, 12 weeks",48.50%
same,hs-CRP average % decrease,"[1]; 150 mg/day, 12 weeks",−4.02%
same,Triglycerides average % decrease,[1]; 150 mg/day,52.09%
same,Triglycerides average % decrease,"[1]; 150 mg/day, listed as gemcabene",52%
same,ApoA-I average % increase,"[1]; 300 mg/day, 12 weeks",−6.17%
same,ApoB average % decrease,"[1]; 300 mg/day, 12 weeks",1.25%
same,ApoC-III average % decrease,"[1]; 300 mg/day, 12 weeks",49.41%
same,HDL-C average % increase,"[1]; 300 mg/day, 12 weeks",11.69%
same,VLDL-C average % decrease,"[1]; 300 mg/day, 12 weeks",51.86%
same,hs-CRP average % decrease,"[1]; 300 mg/day, 12 weeks",−429.19%
same,Triglycerides average % decrease,[1]; 300 mg/day,61.18%
same,Triglycerides average % decrease,"[1]; 300 mg/day, listed as gemcabene",61%
same,ApoA-I average % increase,"[1]; 600 mg/day, 12 weeks",−3.31%
same,ApoB average % decrease,"[1]; 600 mg/day, 12 weeks",−3.70%
same,ApoC-III average % decrease,"[1]; 600 mg/day, 12 weeks",30.89%
same,HDL-C average % increase,"[1]; 600 mg/day, 12 weeks",−4.02%
same,VLDL-C average % decrease,"[1]; 600 mg/day, 12 weeks",28.73%
same,hs-CRP average % decrease,"[1]; 600 mg/day, 12 weeks",33.50%
same,Triglycerides average % decrease,[1]; 600 mg/day,36.44%
same,ApoA-I average % increase,"[1]; 900 mg/day, 12 weeks",0.47%
same,ApoB average % decrease,"[1]; 900 mg/day, 12 weeks",2.26%
same,ApoC-III average % decrease,"[1]; 900 mg/day, 12 weeks",20.36%
same,HDL-C average % increase,"[1]; 900 mg/day, 12 weeks",1.03%
same,VLDL-C average % decrease,"[1]; 900 mg/day, 12 weeks",17.10%
same,hs-CRP average % decrease,"[1]; 900 mg/day, 12 weeks",66.64%
same,Triglycerides average % decrease,[1]; 900 mg/day,0.90%
same,increase in HDL-C levels,"[1]; one patient (FIG. 1), 150 mg/day, 12 weeks",27%
same,serum triglyceride level after treatment,"[1]; one patient (FIG. 1), 150 mg/day, 12 weeks post-treatment, TG 550 mg/dL at initiation",210 mg/dL
same,fall in triglyceride level,"[1]; one patient (FIG. 1), 150 mg/day, 12 weeks, TG 550 mg/dL at initiation",62%
same,triglyceride level at follow-up,[2],363 mg/dL
same,reduction in triglyceride levels,[3]; 150 mg dose,26.6%
same,reduction in triglyceride levels,[3]; 300 mg dose,38.9%
same,inhibition of CYP3A4,[4],low level of inhibition
same,effect in drug-drug interaction study with simvastatin,[5],no clinically relevant effect
